The values below come from patent US7981903B2, “2-[2-{phenylamino}-1H-pyrrolo[2,3-D]pyrimidin-4-yl)amino] benzamide derivatives as IGF-1R inhibitors for the treatment of cancer” (GlaxoSmithKline LLC, priority 2007, dated 2011).

For test [1], the target named is T1, NIH-3T3 cells overexpressing human IR (Homo sapiens, UniProt P06213).
T1 construct: expressed in transfected cells; host or cells: NIH-3T3 (mouse fibroblasts)
In words: IR cellular autophosphorylation (DELFIA). Format: cell-based. The following applies: 2 h compound, insulin 3 ug/ml for 15 minutes, IC50 category. The protocol:
(§1) NIH-3T3 cells overexpressing human IGF-1R or IR were plated in 96-well plates (10,000 cells/well) in culture media containing 10% fetal bovine serum and incubated at 37° C. in a 5% CO2 incubator. Twenty four hours post-plating, cells were treated with different concentrations of test compounds ranging from 30 uM to 1.5 nM. Two hours after compound addition, cells were stimulated with either human IGF-1 (30 ng/ml) or insulin (3 ug/ml) for 15 minutes. Cell lysates are analyzed for phosphorylated receptors using dissociation enhanced lanthanide fluor-immuno assay (DELFIA) with anti-IGF-1R (MAB391, R&D Systems, Minneapolis, Minn.) or anti-IRβ (sc-711, Santa Cruz Biotechnology, Santa Cruz, Calif.) capture antibody and europium-labeled anti-pTyr antibody (Eu-N1 PT66, Perkin Elmer, Waltham, Mass.) for detection. The fluorescence signal for cells treated with compounds was expressed as percent relative to 100% stimulation (IGF-1 or insulin stimulated signal).

For another test, the target named is T2, human IR (hIR) (Homo sapiens, UniProt P06213).
T2 construct: containing amino acid residues 979-1382 of human IR; made in house; host or cells: Sf9 cells (baculovirus), same process as hIGF1R
T2 sequence (P06213 979-1382): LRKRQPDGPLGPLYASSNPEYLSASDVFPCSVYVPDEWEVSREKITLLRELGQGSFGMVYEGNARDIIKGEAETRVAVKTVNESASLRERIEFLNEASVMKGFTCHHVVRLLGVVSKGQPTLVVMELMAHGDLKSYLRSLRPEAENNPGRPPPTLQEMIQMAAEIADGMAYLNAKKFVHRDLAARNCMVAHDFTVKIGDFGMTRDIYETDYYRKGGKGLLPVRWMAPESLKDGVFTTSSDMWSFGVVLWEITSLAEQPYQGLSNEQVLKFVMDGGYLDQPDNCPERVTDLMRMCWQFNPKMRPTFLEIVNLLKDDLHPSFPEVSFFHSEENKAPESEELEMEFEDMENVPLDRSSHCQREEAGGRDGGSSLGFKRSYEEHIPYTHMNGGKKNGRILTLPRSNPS
In words: TR-FRET kinase assay of purified hIR. Format: biochemical. The following applies: activated hIR 0.5 nM, 10 μM ATP, values given as pIC50 category.

The target in another test is ALK (Homo sapiens, UniProt Q9UM73). In words: ALK enzyme assay (HTRF). To be noted: 0.25 nM ALK, 15.0 μM ATP, values given as pIC50 category. The test is classed as biochemical. The method, boiled down:
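Final compound range 0.00017 to 10 μM (twelve 1:3 dilutions). Kinase reaction with ATP and biotinylated synthetic peptide runs 120 min at 20° C, stopped with EDTA; phosphotyrosine detected by HTRF after 60 min. Inhibition referenced to DMSO (1%) and EDTA (0.1 M) controls, curve-fitted.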

The target of test [2] is T3, NIH-3T3 cells overexpressing human IGF-1R (Homo sapiens, UniProt P08069).
T3 construct: expressed in transfected cells; host or cells: NIH-3T3 (mouse fibroblasts)
T3 sequence (P08069 31-1367): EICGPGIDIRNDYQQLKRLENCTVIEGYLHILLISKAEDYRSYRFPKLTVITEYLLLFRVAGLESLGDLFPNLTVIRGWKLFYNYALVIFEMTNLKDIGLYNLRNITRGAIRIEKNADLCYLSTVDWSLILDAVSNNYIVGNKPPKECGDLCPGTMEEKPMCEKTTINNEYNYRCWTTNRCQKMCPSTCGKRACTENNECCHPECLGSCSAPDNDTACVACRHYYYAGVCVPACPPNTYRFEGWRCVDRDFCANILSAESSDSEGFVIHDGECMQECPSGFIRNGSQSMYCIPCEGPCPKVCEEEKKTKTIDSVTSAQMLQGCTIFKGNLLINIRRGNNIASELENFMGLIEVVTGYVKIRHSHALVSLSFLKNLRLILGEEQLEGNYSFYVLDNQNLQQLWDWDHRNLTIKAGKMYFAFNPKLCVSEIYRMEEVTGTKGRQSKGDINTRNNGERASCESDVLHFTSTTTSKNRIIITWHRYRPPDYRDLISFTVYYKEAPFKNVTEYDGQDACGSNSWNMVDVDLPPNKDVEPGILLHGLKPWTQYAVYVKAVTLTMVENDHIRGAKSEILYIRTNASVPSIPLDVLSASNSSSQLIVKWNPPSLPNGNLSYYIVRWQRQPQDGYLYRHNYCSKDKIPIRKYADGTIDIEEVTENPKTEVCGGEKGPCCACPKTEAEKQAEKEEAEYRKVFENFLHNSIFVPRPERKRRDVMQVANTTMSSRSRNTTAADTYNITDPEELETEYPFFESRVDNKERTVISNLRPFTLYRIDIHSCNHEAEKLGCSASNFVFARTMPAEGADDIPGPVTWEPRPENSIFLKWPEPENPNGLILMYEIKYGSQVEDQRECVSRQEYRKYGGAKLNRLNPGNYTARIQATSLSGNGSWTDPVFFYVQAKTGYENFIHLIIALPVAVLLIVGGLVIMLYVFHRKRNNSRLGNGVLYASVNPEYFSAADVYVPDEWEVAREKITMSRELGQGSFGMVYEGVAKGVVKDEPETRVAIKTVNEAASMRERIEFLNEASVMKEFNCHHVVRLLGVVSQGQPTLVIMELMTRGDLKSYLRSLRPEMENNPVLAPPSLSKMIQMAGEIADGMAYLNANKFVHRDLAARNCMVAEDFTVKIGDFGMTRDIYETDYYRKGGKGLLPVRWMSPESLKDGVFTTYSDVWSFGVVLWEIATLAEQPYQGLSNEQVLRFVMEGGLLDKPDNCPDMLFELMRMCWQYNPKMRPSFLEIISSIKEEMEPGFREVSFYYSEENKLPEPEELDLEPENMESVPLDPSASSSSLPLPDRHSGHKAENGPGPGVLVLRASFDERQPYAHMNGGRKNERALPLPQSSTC
In words: IGF-1R cellular autophosphorylation (DELFIA). The test is classed as cell-based. The protocol: as §1

Another test concerns the target T4, human IGF1R (hIGF1R) (Homo sapiens, UniProt P08069).
T4 construct: containing amino acid residues 957-1367 of human IGF1R; made in house; host or cells: Sf9 cells (baculovirus)
In words: TR-FRET kinase assay of purified hIGF1R. To be noted: activated hIGF1R 0.5 nM, 10 μM ATP, values given as pIC50 category, read-out: IGF-1R pIC50 (converted). The test is classed as biochemical.

A further test relates to Colo205. In words: Inhibition of cell proliferation (CellTiter-Glo or InCell analyzer), Colo205. The test is classed as cell-based. To be noted: Homo sapiens, COLO 205, 72 h / 3 days, values given as IC50 category. The protocol: Cell proliferation was measured by either CellTiter-Glo (measures cellular ATP level as a surrogate for total cell number) or by InCell analyzer (counts number of nuclei as a measure of cell number).
For CellTiter-Glo assay, exponentially growing cell lines of different tumor origins, cultured in appropriate media containing 10% fetal bovine serum at 37° C. in a 5% CO2 incubator, were plated at low density (less than 2000cells/well) in 96-well plates. Twenty four hours post-plating, cells were treated with different concentrations of test compounds ranging from 30 uM to 1.5 nM. Several wells were left untreated as a control. Seventy two hours post-treatment, cell numbers were determined using 50-100 ul per well of CellTiter-Glo (Promega #G7573). Plates were incubated at 37° C. for 30 minutes and the chemiluminescent signal was read on the Victor V or Envison 2100 reader.
For InCell Analyser assay, various cell lines of different tumor origins were grown to 70-80% confluency in appropriate culture media containing 10% fetal bovine serum at 37° C. in a 5% CO2 incubator. On day −1, cells were seeded at 2 densities in 384-well plates and incubated at 37° C. overnight. Stock compound plates were prepared in advance which contained dimethyl sulfoxide (DMSO) alone and a 9-point half-log decreasing dose range of the compound in DMSO. The compound plates were stored at −80° C. and each plate was only thawed once and used. On day 0, the main assay plates received compound or DMSO via a sonic delivery system (ECHO). The highest final concentration of compound of the dose range in the culture plates was 10 uM. These plates were cultured at 37° C. for 3 days. […] On day 3, the compound treated plates were stained and fixed to measure proliferation, apoptosis, and mitotic index using an InCelL1000 analyser. A nuclear stain was used to identify cells in the wells. By counting the number of nuclei, the proliferation index of compound treated groups were calculated as a percentage relative to the DMSO control, which was set to 100%. The IC50 values were calculated using model 205 in ExcelFit.
IC50 (nM) values for compounds of select examples were categorized by relative inhibition of cell proliferation.

T4 sequence (P08069 957-1367): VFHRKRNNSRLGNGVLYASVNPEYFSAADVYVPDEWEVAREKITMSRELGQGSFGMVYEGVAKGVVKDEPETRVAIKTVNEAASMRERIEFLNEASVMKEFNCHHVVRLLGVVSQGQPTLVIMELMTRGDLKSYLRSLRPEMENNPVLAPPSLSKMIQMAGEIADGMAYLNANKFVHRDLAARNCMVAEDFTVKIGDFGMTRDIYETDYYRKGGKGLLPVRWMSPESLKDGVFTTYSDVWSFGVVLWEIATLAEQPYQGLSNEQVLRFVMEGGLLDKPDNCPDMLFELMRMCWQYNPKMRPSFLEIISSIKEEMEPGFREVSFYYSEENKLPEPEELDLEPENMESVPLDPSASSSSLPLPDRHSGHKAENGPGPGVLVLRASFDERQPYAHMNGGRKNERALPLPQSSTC
T1 sequence (P06213 28-1382): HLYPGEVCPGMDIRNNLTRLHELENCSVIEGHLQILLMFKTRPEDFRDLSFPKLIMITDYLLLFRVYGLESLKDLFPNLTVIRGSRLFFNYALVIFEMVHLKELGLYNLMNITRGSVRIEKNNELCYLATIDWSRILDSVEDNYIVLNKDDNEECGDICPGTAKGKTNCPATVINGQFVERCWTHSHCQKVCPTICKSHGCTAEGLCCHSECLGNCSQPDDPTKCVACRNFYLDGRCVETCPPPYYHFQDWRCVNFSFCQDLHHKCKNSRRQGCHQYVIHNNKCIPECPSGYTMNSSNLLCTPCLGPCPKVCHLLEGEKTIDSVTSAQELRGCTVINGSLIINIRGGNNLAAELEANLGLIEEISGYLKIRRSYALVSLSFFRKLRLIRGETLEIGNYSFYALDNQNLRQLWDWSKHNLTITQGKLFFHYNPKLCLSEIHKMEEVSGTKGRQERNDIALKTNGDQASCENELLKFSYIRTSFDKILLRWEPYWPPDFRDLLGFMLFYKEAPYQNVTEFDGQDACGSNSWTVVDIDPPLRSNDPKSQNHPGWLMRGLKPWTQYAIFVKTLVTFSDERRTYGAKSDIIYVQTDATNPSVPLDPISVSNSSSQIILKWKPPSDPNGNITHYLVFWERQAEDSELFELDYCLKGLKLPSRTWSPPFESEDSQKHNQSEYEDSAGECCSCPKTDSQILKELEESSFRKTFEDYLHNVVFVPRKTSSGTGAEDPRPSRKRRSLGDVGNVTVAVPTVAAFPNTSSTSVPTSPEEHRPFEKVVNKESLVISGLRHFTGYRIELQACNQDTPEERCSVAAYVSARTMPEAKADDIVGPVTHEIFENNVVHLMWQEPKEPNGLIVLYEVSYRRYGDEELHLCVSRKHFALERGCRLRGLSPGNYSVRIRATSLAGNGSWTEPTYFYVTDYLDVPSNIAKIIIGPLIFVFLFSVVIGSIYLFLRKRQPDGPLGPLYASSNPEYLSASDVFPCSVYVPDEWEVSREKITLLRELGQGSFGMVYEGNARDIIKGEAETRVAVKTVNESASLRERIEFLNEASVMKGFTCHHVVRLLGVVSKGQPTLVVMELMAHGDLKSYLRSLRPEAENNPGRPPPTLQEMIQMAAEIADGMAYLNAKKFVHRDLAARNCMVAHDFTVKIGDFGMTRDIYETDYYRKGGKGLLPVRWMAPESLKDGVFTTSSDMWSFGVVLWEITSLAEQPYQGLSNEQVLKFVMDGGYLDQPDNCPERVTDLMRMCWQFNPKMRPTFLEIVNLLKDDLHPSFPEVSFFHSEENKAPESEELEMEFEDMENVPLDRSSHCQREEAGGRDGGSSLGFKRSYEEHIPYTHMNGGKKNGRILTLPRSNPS
Chain of ALK (Q9UM73 19-1620): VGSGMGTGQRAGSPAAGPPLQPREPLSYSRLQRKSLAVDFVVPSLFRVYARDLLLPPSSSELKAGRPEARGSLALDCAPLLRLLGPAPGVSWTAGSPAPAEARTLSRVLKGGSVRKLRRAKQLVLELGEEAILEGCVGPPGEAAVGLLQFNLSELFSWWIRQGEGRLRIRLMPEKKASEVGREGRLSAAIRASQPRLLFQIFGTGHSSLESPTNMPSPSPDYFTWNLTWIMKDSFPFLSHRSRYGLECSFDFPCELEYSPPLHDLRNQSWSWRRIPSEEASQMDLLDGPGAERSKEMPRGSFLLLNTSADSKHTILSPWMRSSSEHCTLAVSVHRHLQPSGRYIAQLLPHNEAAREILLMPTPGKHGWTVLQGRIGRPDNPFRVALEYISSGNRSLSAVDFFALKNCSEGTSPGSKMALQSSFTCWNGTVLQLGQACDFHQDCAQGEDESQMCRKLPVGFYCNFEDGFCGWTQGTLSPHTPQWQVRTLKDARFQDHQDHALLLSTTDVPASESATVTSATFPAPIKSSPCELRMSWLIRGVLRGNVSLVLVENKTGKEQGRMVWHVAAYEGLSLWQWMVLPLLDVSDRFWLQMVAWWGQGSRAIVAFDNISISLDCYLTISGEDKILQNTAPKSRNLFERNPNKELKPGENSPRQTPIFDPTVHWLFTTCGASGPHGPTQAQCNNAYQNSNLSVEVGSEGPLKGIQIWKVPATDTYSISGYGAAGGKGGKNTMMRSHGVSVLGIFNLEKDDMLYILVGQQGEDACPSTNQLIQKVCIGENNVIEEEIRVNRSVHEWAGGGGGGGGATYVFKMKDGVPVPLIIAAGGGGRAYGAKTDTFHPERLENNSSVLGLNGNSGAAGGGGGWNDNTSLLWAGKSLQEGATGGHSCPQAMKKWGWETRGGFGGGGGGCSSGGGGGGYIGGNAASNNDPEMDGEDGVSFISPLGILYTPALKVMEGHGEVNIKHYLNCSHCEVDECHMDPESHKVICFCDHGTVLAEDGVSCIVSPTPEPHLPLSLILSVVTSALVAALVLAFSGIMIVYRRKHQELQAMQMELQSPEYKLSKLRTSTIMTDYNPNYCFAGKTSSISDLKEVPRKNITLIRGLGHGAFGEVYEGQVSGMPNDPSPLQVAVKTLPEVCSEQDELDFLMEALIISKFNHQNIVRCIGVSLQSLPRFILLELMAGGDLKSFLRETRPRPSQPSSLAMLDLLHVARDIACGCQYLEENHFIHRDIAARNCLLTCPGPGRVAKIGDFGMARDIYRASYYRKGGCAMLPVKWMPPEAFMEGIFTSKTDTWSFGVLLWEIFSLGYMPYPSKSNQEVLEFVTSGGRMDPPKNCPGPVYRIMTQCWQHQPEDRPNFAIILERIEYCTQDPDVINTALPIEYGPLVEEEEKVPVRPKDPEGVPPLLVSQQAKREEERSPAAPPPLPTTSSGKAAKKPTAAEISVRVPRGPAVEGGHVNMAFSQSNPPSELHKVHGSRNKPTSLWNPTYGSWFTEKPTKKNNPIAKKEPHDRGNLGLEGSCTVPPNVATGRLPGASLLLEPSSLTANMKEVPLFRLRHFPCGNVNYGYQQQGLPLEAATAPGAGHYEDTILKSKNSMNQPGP

With `COc1cc(N2CCOCC2)ccc1Nc1nc(Nc2ccccc2C(N)=O)c2cc[nH]c2n1` [Example 12, 2-[(2-{[2-(methyloxy)-4-(4-morpholinyl)phenyl]amino}-1H-pyrrolo[2,3-d]pyrimidin-4-yl)amino]benzamide], the IC50 in test [1] was 100 to 500 nM; against human IR (hIR) it was 0.251 to 1 nM; on ALK, 0.251 to 1 nM; in test [2], 100 to 500 nM; on human IGF1R (hIGF1R), 1.26 to 3.98 nM.
On to `CCCN1CCCC(c2ccc(Nc3nc(Nc4ccccc4C(=O)NC)c4cc[nH]c4n3)c(OC)c2)C1` (stereo not shown) [Example 24, N-methyl-2-[(2-{[2-(methyloxy)-4-(1-propyl-3-piperidinyl)phenyl]amino}-1H-pyrrolo[2,3-d]pyrimidin-4-yl)amino]benzamide], for which the IC50 was 100 to 500 nM in test [1], 0.251 to 1 nM against ALK, 100 to 500 nM in test [2] and 1.26 to 3.98 nM on human IGF1R (hIGF1R).
For `Cc1ccc(NC(=O)CN(C)C)cc1Nc1nc(Nc2cc3ccccc3cc2C(N)=O)c2cc[nH]c2n1` [Example 30, 3-{[2-({5-[(N,N-dimethylglycyl)amino]-2-methylphenyl}amino)-1H-pyrrolo[2,3-d]pyrimidin-4-yl]amino}-2-naphthalenecarboxamide], the IC50 in test [1] is greater than 500 nM; against human IR (hIR) it was 0.251 to 1 nM; against ALK it was 5.01 to 200 nM; at human IGF1R (hIGF1R), 1.26 to 3.98 nM.
Take `COc1cc(N2CCN(C(C)C)CC2)c(OC)cc1Nc1nc(Nc2cccc(F)c2C(N)=O)c2cc[nH]c2n1` [Example 47, 2-fluoro-6-[(2-{[4-[4-(1-methylethyl)-1-piperazinyl]-2,5-bis(methyloxy)phenyl]amino}-1H-pyrrolo[2,3-d]pyrimidin-4-yl)amino]benzamide]: the IC50 is less than 250 nM with Colo205, 1.26 to 3.98 nM at ALK, less than 100 nM in test [2] and 1.26 to 3.98 nM at human IGF1R (hIGF1R).
As for `COc1cc(C2=CCCN(C)C2)ccc1Nc1nc(Nc2ccc(F)cc2C(N)=O)c2cc[nH]c2n1` [Example 55, 5-fluoro-2-[(2-{[2-(methyloxy)-4-(1-methyl-1,2,5,6-tetrahydro-3-pyridinyl)phenyl]amino}-1H-pyrrolo[2,3-d]pyrimidin-4-yl)amino]benzamide], the IC50 in test [1] is 100 to 500 nM; against human IR (hIR), 0.251 to 1 nM; at ALK, 0.251 to 1 nM; in test [2], 100 to 500 nM.
For `COc1ccc(OCCCN(C)C)cc1Nc1nc(Nc2ccc(F)cc2C(N)=O)c2cc[nH]c2n1` [Example 64, 2-[(2-{[5-{[3-(dimethylamino)propyl]oxy}-2-(methyloxy)phenyl]amino}-1H-pyrrolo[2,3-d]pyrimidin-4-yl)amino]-5-fluorobenzamide], the IC50 in the test with Colo205 is 250 to 1000 nM; against ALK, 1.26 to 3.98 nM; in test [2] it was less than 100 nM; at human IGF1R (hIGF1R), 1.26 to 3.98 nM.
Turning to `CCCN1CCC=C(c2ccc(Nc3nc(Nc4cc(F)ccc4C(=O)NCC(N)=O)c4cc[nH]c4n3)c(OC)c2)C1` [Example 67, N-(2-amino-2-oxoethyl)-4-fluoro-2-[(2-{[2-(methyloxy)-4-(1-propyl-1,2,5,6-tetrahydro-3-pyridinyl)phenyl]amino}-1H-pyrrolo[2,3-d]pyrimidin-4-yl)amino]benzamide], the IC50 in the test on Colo205 was 250 to 1000 nM; at ALK, 1.26 to 3.98 nM; in test [2] it was 100 to 500 nM; at human IGF1R (hIGF1R), 1.26 to 3.98 nM.
Take `COc1cc(N2CCN(C(C)C)CC2)ccc1Nc1nc(Nc2cc(F)ccc2C(N)=O)c2cc[nH]c2n1` [Example 79, 4-fluoro-2-[(2-{[4-[4-(1-methylethyl)-1-piperazinyl]-2-(methyloxy)phenyl]amino}-1H-pyrrolo[2,3-d]pyrimidin-4-yl)amino]benzamide]: the IC50 in test [1] is less than 100 nM; at human IR (hIR) it was 0.251 to 1 nM; in test [2], 100 to 500 nM; at human IGF1R (hIGF1R), 0.251 to 1 nM.
As for `COc1cc(N2CCN(C(C)C)CC2)ccc1Nc1nc(Nc2cc(F)c(F)cc2C(N)=O)c2cc[nH]c2n1` [Example 102, 4,5-difluoro-2-[(2-{[4-[4-(1-methylethyl)-1-piperazinyl]-2-(methyloxy)phenyl]amino}-1H-pyrrolo[2,3-d]pyrimidin-4-yl)amino]benzamide], the IC50 against human IR (hIR) was 0.251 to 1 nM; at ALK it was 0.251 to 1 nM; in test [2] it was less than 100 nM; on human IGF1R (hIGF1R), 0.251 to 1 nM.
With `Cc1ccc(NC(=O)CN(C)C)cc1Nc1nc(Nc2cc(F)c(F)cc2C(N)=O)c2cc[nH]c2n1` [Example 106, 2-{[2-({5-[(N,N-dimethylglycyl)amino]-2-methylphenyl}amino)-1H-pyrrolo[2,3-d]pyrimidin-4-yl]amino}-4,5-difluorobenzamide], the IC50 against human IR (hIR) was 0.251 to 1 nM; against ALK, 5.01 to 200 nM; in test [2] it was greater than 500 nM; on human IGF1R (hIGF1R), 1.26 to 3.98 nM.
On the same counts, the results for `Cc1ccc(NC(=O)CN(C)C)cc1Nc1nc(Nc2cc(Cl)ccc2C(N)=O)c2cc[nH]c2n1` [Example 111] are 1.26 to 3.98 nM, 5.01 to 200 nM, greater than 500 nM and 1.26 to 3.98 nM.
On the same counts, the results for `CNC(=O)c1c(F)cccc1Nc1nc(Nc2cc3c(cc2OC)C[C@@H](C)N3C(=O)CN(C)C)nc2[nH]ccc12` [Example 250, 2-[(2-{[(2R)-1-(N,N-dimethylglycyl)-2-methyl-5-(methyloxy)-2,3-dihydro-1H-indol-6-yl]amino}-1H-pyrrolo[2,3-d]pyrimidin-4-yl)amino]-6-fluoro-N-methylbenzamide] are 5.01 to 158 nM, 5.01 to 200 nM, greater than 500 nM and 5.01 to 200 nM.
Consider `CNC(=O)c1c(F)cccc1Nc1nc(Nc2cc(N(C)C(=O)CN(C)C)c(C)cc2OC)nc2[nH]ccc12` [Example 254, 2-[(2-{[5-[(N,N-dimethylglycyl)(methyl)amino]-4-methyl-2-(methyloxy)phenyl]amino}-1H-pyrrolo[2,3-d]pyrimidin-4-yl)amino]-6-fluoro-N-methylbenzamide], for which the IC50 in test [1] is greater than 500 nM; against human IR (hIR) it was 5.01 to 158 nM; on ALK it was 5.01 to 200 nM; in test [2] it was greater than 500 nM.
Take `CNC(=O)c1c(F)cccc1Nc1nc(Nc2cc3c(cc2OC)CCCN3C(=O)CN(C)C)nc2[nH]cc(C)c12` [Example 260, 2-[(2-{[1-(N,N-dimethylglycyl)-6-(methyloxy)-1,2,3,4-tetrahydro-7-quinolinyl]amino}-5-methyl-1H-pyrrolo[2,3-d]pyrimidin-4-yl)amino]-6-fluoro-N-methylbenzamide]: the IC50 in test [1] is less than 100 nM; against human IR (hIR), 0.251 to 1 nM; in test [2], less than 100 nM; on human IGF1R (hIGF1R), 0.251 to 1 nM.
Regarding `COc1cc2c(cc1Nc1nc(Nc3cccc(F)c3C(N)=O)c3c(C)c[nH]c3n1)N(C(=O)CN(C)C)CCC2` [Example 261, 2-[(2-{[1-(N,N-dimethylglycyl)-6-(methyloxy)-1,2,3,4-tetrahydro-7-quinolinyl]amino}-5-methyl-1H-pyrrolo[2,3-d]pyrimidin-4-yl)amino]-6-fluorobenzamide], the IC50 in test [1] is less than 100 nM; against human IR (hIR), 0.251 to 1 nM; in test [2], less than 100 nM; at human IGF1R (hIGF1R), 0.251 to 1 nM.
